For data set [1] the following is noted: 24 h, pH 5.
A short description of a further data set: physchem. Conditions: pH 5, Solubility (µg/mL).
The nature of data set [2]: Metabolic stability in mouse liver microsomes. Background: Microsomes from liver hold many membrane-bound enzymes, among them those of drug oxidation.
Description: The concentration of the parent drug in the incubation system was detected by LC/MS/MS, and the intrinsic clearance rate of the test compound in the microsome system was calculated to evaluate its stability. The test concentration of the test compound and the positive control compound was 1 µM. • 1. 25 µL of NADPH (10 mM) or phosphate buffered saline (100 mM, pH = 7.4) was transferred to the liver microsome incubation system, and 2 µL of the test sample or verapamil at a concentration of 200 µM was added. Samples supplemented with NADPH were prepared in duplicate, and NADPH-negative samples were prepared in singlicate. • 2. 30 µL of the suspension was taken at 0.5, 5, 15, 30, and 60 minutes, respectively. The reaction was stopped by adding 180 µL of acetonitrile containing internal standard and vortexed for 10 min. • 3. […] 100 µL of the supernatant was transferred to the sample injection plate, and 100 µL of pure water was added and mixed well for UPLC-MS/MS analysis. • 4. All data calculations were performed using Microsoft Excel software. Peak areas were detected by extracting ion chromatograms. The in vitro half-life (t1/2) of the parent drug was detected by linear fitting the natural logarithm of the parent drug elimination percentage with time.
The in vitro clearance rate Clint (unit: µL/min/mg) was calculated: in vitro CLint = kV/N; V = incubation volume per well (400 µL); V = incubation volume per well (400 µL).
The nature of data set [3]: Tissue distribution: tumor tissue concentration in OVCAR3 tumor-bearing mice. Conditions: BALB/c nude mice, 10 mpk p.o. BIDx28D; for Tumor tissue concentration (ng/g) 2 h after administration: 2 h after last administration; for Tumor tissue concentration (ng/g) 6 h after administration: 6 h after last administration.
Description: The cells were cultured in an incubator at 37°C and 5% CO2. The medium was changed every other day, and the cells were subcultured every 3 to 4 days after the cells had become confluent. Under sterile conditions, the in vitro cultured OVCAR3 cell suspension was taken, centrifuged, and added to adjust the cell concentration to 1 × 10^8 cells/mL, and an equal volume of Matrigel was added, and inoculated subcutaneously on the back of the right hind forelimb of mice (BALB/c nude mice, female, Beijing Vital River Laboratory Animal Technology Co., Ltd.) (0.1 mL/mouse). […] The mice were randomly divided into groups according to tumor size and weight, and the administration of the test compound was started.
The experiment was divided into a solvent control group, a positive control group, and a test group, with 5-6 mice in each group. For the test compound administration group, the test compound was mixed in 0.5% methylcellulose and administered by oral gavage twice a day. The experiment was terminated 28 days after administration, and PK plasma (EDTA-K2 anticoagulated) samples were collected (0.5 h, 1 h, 2 h, and 6 h after administration), and the mice were euthanized and tumor samples were collected 2 h and 6 h after the last administration.
Tumor concentration test method:
All tumor samples were added with pure water at a ratio of 1:3 (3 mL solvent per g tumor), and homogenized using a cryogenic homogenizer to obtain tumor sample solutions.
Standard curve preparation method:
The powder of the test compound was diluted in a gradient manner with 50% acetonitrile aqueous solution to obtain a series of working solutions. 3 µL of working solution (10, 20, 40, 100, 200, 1000, 2000, 10000, and 20000 ng/mL) was added to 57 µL of blank Balb/c nude mouse tumor sample solution to obtain calibration standard solutions of 0.5 to 1000 ng at concentrations of 0.5, 1, 2, 5, 10, 50, 100, 500, and 1000 ng/mL, respectively, in a total volume of 60 µL.
Quality control samples were prepared in the same manner as the calibration standard solutions: 3 µL of working solution (30, 60, 120, 1000, 8000, and 16000 ng/mL) was added to 57 µL of blank Balb/c nude mouse tumor sample solution to obtain 6 quality control samples with concentrations of 1.5 ng/mL, 3 ng/mL, 6 ng/mL, 50 ng/mL, 400 ng/mL, and 800 ng/mL, respectively, with a total volume of 60 µL.
30 µL of the sample (including standard solution, quality control sample, and test sample) was taken, and 200 µL of protein precipitant containing acetonitrile was added to precipitate the protein, vortexed for 30 seconds, then centrifuged at 4°C and 3900 rpm for 15 minutes, and then the supernatant was aspirated and diluted 3 times with water. 5 µL of the diluted supernatant was loaded on the LC/MS/MS system for quantitative analysis.
The next data set deals with T1, PKMYT1 enzyme (Homo sapiens, UniProt Q99640).
T1 construct: purchased Thermo Scientific A33387
T1 sequence (Q99640 1-499): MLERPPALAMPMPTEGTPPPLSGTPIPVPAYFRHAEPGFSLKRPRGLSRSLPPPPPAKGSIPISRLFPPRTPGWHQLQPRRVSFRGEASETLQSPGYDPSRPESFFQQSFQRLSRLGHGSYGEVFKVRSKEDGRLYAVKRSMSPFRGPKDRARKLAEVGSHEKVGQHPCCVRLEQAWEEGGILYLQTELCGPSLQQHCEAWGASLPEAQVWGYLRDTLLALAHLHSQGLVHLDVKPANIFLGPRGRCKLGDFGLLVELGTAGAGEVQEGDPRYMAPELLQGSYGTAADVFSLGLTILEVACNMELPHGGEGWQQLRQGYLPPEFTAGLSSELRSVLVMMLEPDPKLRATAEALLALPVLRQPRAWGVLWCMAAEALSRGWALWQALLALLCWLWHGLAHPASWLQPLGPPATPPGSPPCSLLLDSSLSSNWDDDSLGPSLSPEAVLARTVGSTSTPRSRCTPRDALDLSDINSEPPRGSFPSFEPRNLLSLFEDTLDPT
Description: PKMYT1 enzyme inhibition activity, ADP-GLO method. It is filed as biochemical. The following applies: PKMYT1 enzyme 10 nM, ATP 5 µM, 37°C 90 minutes; read-out: ADP-GLO IC50.

The test system of the next data set is HCC1569 cells. Description: Cytostatic activity, CTG assay (HCC1569). It is filed as cell-based. The following applies: 5 days. As for the experimental part: Biological test example 2. Cytostatic activity of compounds of the present disclosure
CTG assay (HCC1569) was used to verify the biological activity of some of the example compounds of the present disclosure.
HCC1569 cells were purchased from ATCC (Cat. No.: CRL-2330) and cultured in a 37°C, 5% CO2 cell culture incubator. HCC1569 complete medium: RPMI-1640 liquid medium (Cat. No.: Gibico 11875-093), 20% FBS (Cat. No.: Gibico 10099-141), 1% Pen Strep (Cat. No.: Gibico 15070-063).
HCC1569 cells in a 75 cm^2 culture flask were digested with 2 mL of trypsin for 2-3 min, and then neutralized with 2 mL of 1640 complete medium. The mixture was centrifuged at 1200 rpm for 5 minutes. Cells were resuspended using 4 mL of 1640 complete medium. 500 µL of cell suspension was taken for cell counting using Vi-CELL-XR cell counter.
Using a Multidrop instrument, the HCC1569 cells were seeded in a 384-well plate at a density of 1000 cells per well (50 µL 1640 Growth Media) and administrated 24 hours later.
Using an ultra-micro pipette, the test compound (concentration: 3.33 mM, dissolved in DMSO) was diluted with 10 µM as the highest starting concentration, and then sequentially diluted in 10 gradients at a ratio of 1:3 (10000 nM, 3333 nM, 1111 nM, 370 nM, 123 nM, 41 nM, 13.7 nM, 4.6 nM, 1.5 nM, 0.5 nM) for administration treatment, with two duplicate wells for each concentration; 14 wells for positive and negative controls were set, with the positive control being the duplicate wells of 10 µM positive compound and the negative control being the duplicate wells of DMSO.
After the administration was completed, the cells were placed in a 37°C incubator for further culture for 5 days. After 5 days, 25 µL of CTG buffer was added to each well for CTG assay detection, and analyzed using a microplate reader. CTG readings were analyzed.
a = CTG value (highest concentration), b = CTG value (blank well), x = CTG value(test well).
IC50 was calculated using GraphPad PRISM 8.
Log10 (A compound concentration) was used for statistical calculation. (2) The data were input into GraphPad PRISM 8, and Analysis was selected. (3) Nonlinear regression (curve fit) was selected. (4) Log (inhibitor) vs. response-Variable slope was selected. (5) The calculation formula was selected, and the calculation was carried out according to the following formula: Y = Bottom + (Top-Bottom)/(1+10^((LogIC50-X)*HillSlope)), X: logarithm of dose or concentration, Y: response value, Top and Bottom: peak and bottom values. (6) The data were fitted to obtain IC50 values. (7) The fitting conditions were adjusted according to the specific data. Appropriate Constraint conditions were adjusted for Bottom, Top, and HillSlope. The curve that best fits the actual situation has been reached.

A short description of data set [4]: TS-FeSSIF & TS-FeSSGF solubility test. Conditions: pH 5.
Data set [5] can be described thus: Metabolic stability in human hepatocytes. The following applies: for hepatocyte CLint at 1 µM: In vitro Clint (µL/min/10^6 cells); for half-life at 1 µM: t1/2 (min).

Values after ≈ are worked out from the molar mass of the structure shown.

By Solubility is commonly meant the concentration that dissolves in the medium under given conditions. Lower therefore signals a poorly soluble substance. The solubility is how much of the substance goes into solution per volume. One may read the half-life as the time in which the quantity being followed falls by half. A higher half-life goes with slow decline. Broadly, the microsomal CLint is a measure of how fast metabolising enzymes remove a compound, apart from limits set by blood flow. Lower therefore signals greater metabolic stability. Regarding `Cc1cc2c(C(N)=O)c(N)n(-c3c(C)ccc(O)c3C)c2nc1C` (atropisomer, axis not shown) [RP-6306, reference compound], the “Solubility” value in data set [1] is recorded as 33.9 µg/mL (≈ 105 µM). The same compound registered a solubility at 24 h in the data set “physchem” of 31.6 µg/mL (≈ 97.4 µM). In data set [2] (microsomes), this compound displayed a half-life at 1 µM of 0.377 h and a microsomal CLint at 1 µM of 61.3 µL/min/mg. Moreover, in data set [3], the “Tumor tissue concentration (ng/g) 2 h after administration” value is listed as 172 ng/g and the “Tumor tissue concentration (ng/g) 6 h after administration” value turned out to be 18 ng/g.
A word on the IC50: it is the concentration needed to halve the response being measured. On to `Cc1cc(F)c(O)c(C)c1-n1c(N)c(C(N)=O)c2cc(Br)c(C)nc21` (atropisomer, axis not shown) [Example 58.1], for which the IC50 at PKMYT1 enzyme worked out at 3.08 nM; with HCC1569 cells (Homo sapiens, HCC1569, 120 h), 83 nM. In data set [2] (liver microsomes), the half-life at 1 µM is 1.16 h. Further, in data set [2] (liver microsomes), the microsomal CLint at 1 µM amounted to 19.9 µL/min/mg.
As for `Cc1cc2c(C(N)=O)c(N)n(-c3c(C)c(O)cc(F)c3C)c2nc1-c1cccnc1` [Example 123], the IC50 on PKMYT1 enzyme worked out at 6.48 nM; in the data set with HCC1569 cells (Homo sapiens, HCC1569, 120 h) it was 58 nM.
For `Cc1nc2c(cc1C1CCCC1)c(C(N)=O)c(N)n2-c1c(C)c(O)cc(F)c1C` [Example 112], the IC50 at PKMYT1 enzyme was 33.8 nM; in the data set with HCC1569 cells (Homo sapiens, HCC1569, 120 h) it was 18 nM.
With `Cc1c(O)cc(F)c(C)c1-n1c(N)c(C(N)=O)c2cc3c(nc21)CCO3` [Example 181], the IC50 is 34.8 nM at PKMYT1 enzyme and 63 nM in the data set on HCC1569 cells (Homo sapiens, HCC1569, 120 h).
As to `Cc1nc2c(cc1-c1ccncc1)c(C(N)=O)c(N)n2-c1c(C)c(O)cc(F)c1C` [Example 129], the IC50 on PKMYT1 enzyme came out at 10.5 nM; with HCC1569 cells (Homo sapiens, HCC1569, 120 h), 38 nM.
Broadly, the hepatocyte CLint is the rate of metabolic loss divided by the concentration. Read a high hepatocyte CLint as faster metabolism. As for `Cc1cc(F)c(O)c(C)c1-n1c(N)c(C(N)=O)c2cc(C(F)(F)F)c(C)nc21` (atropisomer, axis not shown) [Example 59.1], the IC50 on PKMYT1 enzyme is 4.49 nM; with HCC1569 cells (Homo sapiens, HCC1569, 120 h) it was 56 nM. The solubility at 24 h in data set [4] (ts-fessgf) was 253 µg/mL (≈ 639 µM); in data set [4] (ts-fessif), 352 µg/mL (≈ 888 µM). Moreover, the intrinsic clearance (hepatocyte CLint) at 1 µM in data set [5] (Female) is 10 µL/min/1e6 cells; in data set [5] (Male), 7 µL/min/1e6 cells. Also, the half-life at 1 µM in data set [5] (Female) turned out to be 2.3 h; in data set [5] (Male), 3.3 h; in data set [2] (liver microsomes), 3.08 h. The same compound displayed a microsomal CLint at 1 µM in data set [2] (liver microsomes) of less than 7.5 µL/min/mg. Also, the “Tumor tissue concentration (ng/g) 2 h after administration” value in data set [3] stood at 633 ng/g. Moreover, the “Tumor tissue concentration (ng/g) 6 h after administration” value in data set [3] stood at 231 ng/g.
Take `Cc1nc2c(cc1-c1nccs1)c(C(N)=O)c(N)n2-c1c(C)c(O)cc(F)c1C` [Example 127]: the IC50 on PKMYT1 enzyme was 9.17 nM; in the data set with HCC1569 cells (Homo sapiens, HCC1569, 120 h), 14 nM.
`Cc1cc(F)c(O)c(C)c1-n1c(N)c(C(N)=O)c2cc(N(C)C)c(C)nc21` (atropisomer, axis not shown) [Example 169.1]: the IC50 on PKMYT1 enzyme was determined as 6.31 nM; in the data set on HCC1569 cells (Homo sapiens, HCC1569, 120 h) it was 78 nM.
Consider `CCc1nc2c(cc1C)c(C(N)=O)c(N)n2-c1c(C)c(O)cc(F)c1C` [Example 136], for which the IC50 on PKMYT1 enzyme came to 9.9 nM; in the data set with HCC1569 cells (Homo sapiens, HCC1569, 120 h) it was 21 nM.
`Cc1c(O)cc(F)c(C)c1-n1c(N)c(C(N)=O)c2cc(C3CCCCC3)cnc21` [Example 102]: the IC50 is 27.3 nM on PKMYT1 enzyme and 82 nM in the data set on HCC1569 cells (Homo sapiens, HCC1569, 120 h).
For `Cc1c(O)cc(F)c(C)c1-n1c(N)c(C(N)=O)c2cc3ccccc3nc21` [Example 191], the IC50 on PKMYT1 enzyme was found to be 2.85 nM; in the data set with HCC1569 cells (Homo sapiens, HCC1569, 120 h), 16 nM.
As to `Cc1c(O)cc(F)c(C)c1-n1c(N)c(C(N)=O)c2cc(-c3ccccc3)cnc21` (racemic) [Example 119], the IC50 worked out at 15.2 nM on PKMYT1 enzyme and 44 nM with HCC1569 cells (Homo sapiens, HCC1569, 120 h).
In the same order, the values of `Cc1nc2c(cc1N1CCOCC1)c(C(N)=O)c(N)n2-c1c(C)c(O)cc(F)c1C` [Example 134] are 33.6 nM and 56 nM.
For the compound `C=Cc1cc2c(C(N)=O)c(N)n(-c3c(C)c(O)cc(F)c3C)c2nc1C` (racemic) [Example 111], the IC50 amounted to 3.57 nM on PKMYT1 enzyme and 13 nM in the data set on HCC1569 cells (Homo sapiens, HCC1569, 120 h).
In the same order, the values of `Cc1cc(F)c(O)c(C)c1-n1c(N)c(C(N)=O)c2c3c(c(C)nc21)CCC3` (atropisomer, axis not shown) [Example 176.2] are 10.2 nM and 68 nM.
The matching figures for `Cc1c(O)cc(F)c(C)c1-n1c(N)c(C(N)=O)c2cc(Cl)cnc21` [Example 81]: 9.19 nM and 66 nM.
As for `Cc1cc(F)c(O)c(C)c1-n1c(N)c(C(N)=O)c2cc(C(C)C)c(C)nc21` (racemic) [Example 159], the IC50 on PKMYT1 enzyme amounted to 15.1 nM; in the data set on HCC1569 cells (Homo sapiens, HCC1569, 120 h) it was 56.2 nM.
As for `Cc1c(O)cc(F)c(C)c1-n1c(N)c(C(N)=O)c2cc(-c3ccccc3)cnc21` (atropisomer, axis not shown) [Example 119.1], the IC50 turned out to be 4.66 nM at PKMYT1 enzyme and 18 nM in the data set with HCC1569 cells (Homo sapiens, HCC1569, 120 h).
In the same order, the values of `Cc1nc2c(cc1C1CC1)c(C(N)=O)c(N)n2-c1c(C)c(O)cc(F)c1C` [Example 110] are 5.77 nM and 15 nM.
In the same order, the values of `Cc1cc(F)c(O)c(C)c1-n1c(N)c(C(N)=O)c2cc(C(C)C)cnc21` (atropisomer, axis not shown) [Example 170.2] are 10 nM and 80 nM.
For `Cc1c(O)cc(F)c(C)c1-n1c(N)c(C(N)=O)c2cc(C(C)C)cnc21` (racemic) [Example 113], the IC50 on PKMYT1 enzyme amounted to 8.33 nM; in the data set on HCC1569 cells (Homo sapiens, HCC1569, 120 h), 18 nM.
For the compound `CCc1cc2c(C(N)=O)c(N)n(-c3c(C)c(O)cc(F)c3C)c2nc1C` (atropisomer, axis not shown) [Example 132.1], the concentration for half-maximal inhibition (IC50) on PKMYT1 enzyme came out at 6.23 nM; in the data set on HCC1569 cells, 11 nM.
As to `Cc1c(O)cc(F)c(C)c1-n1c(N)c(C(N)=O)c2cc3c(nc21)CCC3` [Example 179], the IC50 at PKMYT1 enzyme came out at 3.13 nM; in the data set on HCC1569 cells (Homo sapiens, HCC1569, 120 h), 22 nM.
For the compound `Cc1nc2c(cc1F)c(C(N)=O)c(N)n2-c1c(C)c(O)cc(F)c1C` [Example 105], the IC50 at PKMYT1 enzyme is 2.43 nM; in the data set with HCC1569 cells (Homo sapiens, HCC1569, 120 h) it was 54 nM.
For `C=C(C)c1cnc2c(c1)c(C(N)=O)c(N)n2-c1c(C)c(O)cc(F)c1C` (atropisomer, axis not shown) [Example 133.1], the IC50 at PKMYT1 enzyme was determined as 2.43 nM; in the data set with HCC1569 cells it was 12 nM.

Values taken from patent publication EP4624471A1, “PKMYT1 INHIBITOR, PREPARATION METHOD THEREFOR, AND PHARMACEUTICAL COMPOSITION AND USE THEREOF” (Shanghai Qilu Pharmaceutical Research and Development …, priority 2022, dated 2024).
